In brackets after ≈: the same amount, converted by molar mass.
Legend:
[1] = system: C. coli ATCC33559; experiment: Copper sulfate sensitivity dose–response assay in vitro (MIC/MBC); assay type: cell-based; conditions: Campylobacter coli; for MIC: ATCC33559, read-out: MIC, C. coli (Table S4); for MBC: ATCC33559, 0.5 mM CuSO4, read-out: MBC, C. coli (Table S5)
Method: (§1) Campylobacter jejuni 81–176 was the primary model strain used for the selection of the potential Tat-dependent inhibitors by high-throughput screening. C. jejuni 81–176 is resistant to 0.5 and 1 mM CuSO4 (Supplementary Figure S1). C. jejuni 81–176 tatC knockout mutant (C. jejuni ΔtatC) was used to confirm the Tat-dependent inhibitory effect of the selected SM. C. jejuni ΔtatC is susceptible to 0.5 mM and higher of CuSO4 ([Rajashekara et al., 2009]). The specificity of the Tat-dependent inhibitors was also tested on 11 additional Campylobacter strains (C. coli ATCC33559 and 10 other C. jejuni strains isolated from chickens) and 7 commensal/beneficial bacteria (Supplementary Table S1). The […] (Au-13, Au-20, Au-38, Au-39, Au-47, Au-50, Au-24, Au-32, Au-44, and Au-45) were selected based on their single nucleotide polymorphism (SNP)-type and percent of prevalence in chickens ([Merchant-Patel et al., 2008]; [Kumar et al., 2016]). Additional details about the bacterial strains are shown in Supplementary Table S1.
(§2) In total, 19 SMs were two-fold serially diluted to obtain a final SM concentration ranging from 6.25 to 0.012 μg/mL. C. jejuni 81–176 was then treated with a determined concentration of SM, as described in the copper sensitivity assay. […] The lowest bactericidal SM concentration was considered the MBC (no increase in OD600 over time and no viable cells were recovered on agar plate after challenge) (N = 3 replicates per SM). […] However, these SMs were two-fold serially diluted to obtain a final SM concentration ranging from 5 μg to 0.0625 μg for testing (N = two independent experiments with four technical replicate for each SM).

[2] = system: C. jejuni Au-13; experiment: as above; assay type: cell-based; conditions: Campylobacter jejuni; for MIC: AU13, read-out: MIC, Au-13 (Table S4); for MBC: AU13, 0.5 mM CuSO4, read-out: MBC, Au-13 (Table S5)
Method: as §1, §2

[3] = system: C. jejuni Au-20; experiment: as above; assay type: cell-based; conditions: Campylobacter jejuni; for MIC: AU20, read-out: MIC, Au-20 (Table S4); for MBC: AU20, 0.5 mM CuSO4, read-out: MBC, Au-20 (Table S5)
Method: as §1, §2

[4] = system: C. jejuni Au-24; experiment: as above; assay type: cell-based; conditions: Campylobacter jejuni; for MIC: AU24, read-out: MIC, Au-24 (Table S4); for MBC: AU24, 0.5 mM CuSO4, read-out: MBC, Au-24 (Table S5)
Method: as §1, §2

[5] = system: C. jejuni Au-32; experiment: as above; assay type: cell-based; conditions: Campylobacter jejuni; for MIC: AU32, read-out: MIC, Au-32 (Table S4); for MBC: AU32, 0.5 mM CuSO4, read-out: MBC, Au-32 (Table S5)
Method: as §1, §2

[6] = system: C. jejuni Au-38; experiment: as above; assay type: cell-based; conditions: Campylobacter jejuni; for MIC: AU38, read-out: MIC, Au-38 (Table S4); for MBC: AU38, 0.5 mM CuSO4, read-out: MBC, Au-38 (Table S5)
Method: as §1, §2

[7] = system: C. jejuni Au-39; experiment: as above; assay type: cell-based; conditions: Campylobacter jejuni; for MIC: AU39, read-out: MIC, Au-39 (Table S4); for MBC: AU39, 0.5 mM CuSO4, read-out: MBC, Au-39 (Table S5)
Method: as §1, §2

[8] = system: C. jejuni Au-44; experiment: as above; assay type: cell-based; conditions: Campylobacter jejuni; for MIC: AU44, read-out: MIC, Au-44 (Table S4); for MBC: AU44, 0.5 mM CuSO4, read-out: MBC, Au-44 (Table S5)
Method: as §1, §2

[9] = system: C. jejuni Au-45; experiment: as above; assay type: cell-based; conditions: Campylobacter jejuni; for MIC: AU45, read-out: MIC, Au-45 (Table S4); for MBC: AU45, 0.5 mM CuSO4, read-out: MBC, Au-45 (Table S5)
Method: as §1, §2

[10] = system: C. jejuni Au-47; experiment: as above; assay type: cell-based; conditions: Campylobacter jejuni; for MIC: AU47, read-out: MIC, Au-47 (Table S4); for MBC: AU47, 0.5 mM CuSO4, read-out: MBC, Au-47 (Table S5)
Method: as §1, §2

[11] = system: C. jejuni Au-50; experiment: as above; assay type: cell-based; conditions: Campylobacter jejuni; for MIC: AU50, read-out: MIC, Au-50 (Table S4); for MBC: AU50, 0.5 mM CuSO4, read-out: MBC, Au-50 (Table S5)
Method: as §1, §2

[12] = system: Commensal/beneficial gut bacteria (n = 7); experiment: Activity spectrum against commensal/beneficial gut bacteria at 6.25 μg/mL; assay type: cell-based; conditions: 6.25 μg/mL SM
Method: A similar experiment was performed with seven commensal/beneficial gut bacteria to determine species specificity of these SMs. In brief, an overnight suspension was normalized at 0.05 OD600 using the appropriate medium and challenged with 6.25 μg/mL of SM. Details about the strains and their growing conditions are shown in Supplementary Table S1. Medium alone and 1% DMSO were used as controls (N = 3 replicates per SM).

[13] = system: intracellular C. jejuni 81–176 in Caco-2 cells; experiment: Copper sulfate sensitivity dose–response assay in infected Caco-2 colon epithelial cells; assay type: cell-based, Campylobacter jejuni; conditions: 0.5 mM CuSO4; for C. jejuni 81–176 MBC in Caco2 cells: infected Caco-2 cells, 24 h
Method: The intracellular reduction in C. jejuni in the presence of a given SM (T1-T8) and 0.5 mM CuSO4 were evaluated using Caco-2 cells, as previously described ([Kumar et al., 2016]; [Deblais et al., 2019]). In brief, cells were infected for 2 h using a multiplicity of infection (MOI) of 100. Infected cells were treated with SM at a final concentration ranging between 5 and 0.315 μg/mL and incubated at 37°C for 24 h in a humidified 5% CO2 incubator. Following incubation, cells were washed once with 1X PBS, lysed with 0.1% Triton-100X, serially 10-fold diluted in 1X PBS, and plated on MH agar plate. Plates were incubated in microaerophilic conditions at 42°C for 24 h, to determine the intracellular survival. Cells not infected and not treated and cells infected and treated with 1% DMSO were used as controls (N = two independent experiments with four technical replicate for each SM).

[14] = system: Caco-2 cells; experiment: Cytotoxicity on Caco-2 colon epithelial cells (LDH assay); assay type: cell-based; conditions: for cytotoxicity index on Caco-2 cells: 5 μg SM /ml, 24 h
Method: Cytotoxicity of the eight SMs (T1-T8) was tested on Caco-2 cells at 5, 25, and 50 μg/mL, as previously described ([Kumar et al., 2016]; [Deblais et al., 2019]). In brief, a 96-well plate seeded with approximately 1.4 × 10^5 Caco-2 cells/well in MEM medium was challenged with a final SM concentration of 5, 25, and 50 μg/mL. After 24 h of incubation at 37°C in a humidified 5% CO2 incubator, cytotoxic effects were determined using the PierceTM Lactate Dehydrogenase Cytotoxicity Assay Kit (Thermo Fisher Scientific). Cell death was measured based on the production of formazan (chromogenic dye), which can be read at OD570. Equal concentrations (5, 25, and 50 μg/mL) of kanamycin or chloramphenicol, 1% DMSO, and 10X lysis buffer were used as control. The cytotoxicity level was calculated according to the manufacturer’s instructions (N = two independent experiments with three technical replicate for each SM).

SMILES | MIC [1] | MBC [1] | MIC [2] | MBC [2] | MIC [3] | MBC [3] | MIC [4] | MBC [4] | MIC [5] | MBC [5] | MIC [6] | MBC [6] | MIC [7] | MBC [7] | MIC [8] | MBC [8] | MIC [9] | MBC [9] | MIC [10] | MBC [10] | further results
CC(C)(C)NC(=S)NNc1c(Cl)cncc1Cl [T2] | 0.62 µg/mL (≈ 2.11 µM) | 1.24 µg/mL (≈ 4.23 µM) | 0.31 µg/mL (≈ 1.06 µM) | 0.62 µg/mL (≈ 2.11 µM) | 0.62 µg/mL (≈ 2.11 µM) | 1.24 µg/mL (≈ 4.23 µM) | 0.31 µg/mL (≈ 1.06 µM) | 0.62 µg/mL (≈ 2.11 µM) | 0.62 µg/mL (≈ 2.11 µM) | 1.24 µg/mL (≈ 4.23 µM) | 0.62 µg/mL (≈ 2.11 µM) | 1.24 µg/mL (≈ 4.23 µM) | 0.31 µg/mL (≈ 1.06 µM) | 0.62 µg/mL (≈ 2.11 µM) | 0.31 µg/mL (≈ 1.06 µM) | 0.62 µg/mL (≈ 2.11 µM) | 0.62 µg/mL (≈ 2.11 µM) | 1.24 µg/mL (≈ 4.23 µM) | 0.31 µg/mL (≈ 1.06 µM) | 0.62 µg/mL (≈ 2.11 µM) | MIC [11]: 0.31 µg/mL (≈ 1.06 µM); MBC [11]: 0.62 µg/mL (≈ 2.11 µM); Growth inhibition at 6.25 μg/mL, Commensal/beneficial gut bacteria (strains inhibited/tested) [12]: 2/7; Commensal/beneficial gut bacteria inhibited at 6.25 μg/mL (species) ([12]; Ef Enterococcus faecalis, Lb Levilactobacillus brevis, LGG Lacticaseibacillus rhamnosus GG): Lb and Ef; SM concentration that completely cleared intracellular C. jejuni 81–176 in Caco-2 cells (MBC in Caco2 cells) ([13]; 24 h treatment): < 5 µg/mL; C. jejuni 81–176 MBC in Caco2 cells [13]: 1.25 µg/mL; cytotoxicity index on Caco-2 cells [14]: < 20%
CCCNC(=S)Nc1cc(OC)cc(OC)c1 [T1] | 0.31 µg/mL (≈ 1.22 µM) | 0.62 µg/mL (≈ 2.44 µM) | 1.25 µg/mL (≈ 4.91 µM) | 2.5 µg/mL (≈ 9.83 µM) | 0.31 µg/mL (≈ 1.22 µM) | 0.62 µg/mL (≈ 2.44 µM) | 0.16 µg/mL (≈ 0.629 µM) | 0.32 µg/mL (≈ 1.26 µM) | 0.62 µg/mL (≈ 2.44 µM) | 1.24 µg/mL (≈ 4.88 µM) | 0.31 µg/mL (≈ 1.22 µM) | 0.62 µg/mL (≈ 2.44 µM) | 0.31 µg/mL (≈ 1.22 µM) | 0.62 µg/mL (≈ 2.44 µM) | 0.31 µg/mL (≈ 1.22 µM) | 0.62 µg/mL (≈ 2.44 µM) | 0.31 µg/mL (≈ 1.22 µM) | 0.62 µg/mL (≈ 2.44 µM) | 0.16 µg/mL (≈ 0.629 µM) | 0.32 µg/mL (≈ 1.26 µM) | MIC [11]: 0.31 µg/mL (≈ 1.22 µM); MBC [11]: 0.62 µg/mL (≈ 2.44 µM); Growth inhibition at 6.25 μg/mL, Commensal/beneficial gut bacteria (strains inhibited/tested) [12]: 0/7; C. jejuni 81–176 MBC in Caco2 cells [13]: 0.63 µg/mL; cytotoxicity index on Caco-2 cells [14]: < 20%; toxicity level to Caco-2 cells ([14]; 25 μg/mL or 50 μg/mL of SM for 24 h): 36%
